# Source: US9119823B2 (priority 2008, dated 2015)
# Where two headings read alike, the source gives them in different places.
# How the values were obtained:
# [1] = tested on: nitric oxide synthase (NOS); conditions: read-out: Michaelis constant (KM) for substrate; cited from earlier work
# [2] = in vivo; cited from earlier work
# [3] = adults; cited from earlier work
# [4] = man, cited from earlier work
# [5] = cited from earlier work
# [6] = two year study, male or female rats; cited from earlier work
# [7] = cited from earlier work; for half life of nitrite in whole blood: human whole blood
# [8] = low NOx diet
# [9] = 50 mg/L nitrite in the drinking water for 7 days
# Description: Enzymatic NO insufficiency is a hallmark of a number of diseases including cardiovascular disease. […] The mice were fed standard rodent chow or low NOx diet.
# [10] = cited from earlier work; remark: listed apart in the source
# [11] = tested on: myocardial ischemia/reperfusion (I/R) injury
# [12] = tested on: myocardial ischemia/reperfusion injury; conditions: eNOS-/- mice, low NOx diet, 50 mg/L nitrite, 30 minutes ischemia and 24 hour reperfusion
# [13] = two year study, male or female mice; cited from earlier work
# [14] = tested on: lesion formation on the abdominal aorta; conditions: 50 mg/L nitrite for 12 weeks, high fat diet
# Description: Although the LDb mice spontaneously develop atherosclerosis on normal rodent chow, the addition of a high fat diet will accelerate the process from 8 months to 12 weeks.
# [15] = tested on: tissue homogenates; conditions: at 0.5% oxygen; cited from earlier work
# [16] = 50 mg/L nitrite in the drinking water for 1 week
compound,measurement,setting,value
N=C(N)NCCC[C@H](N)C(=O)O [L-arginine],Km,[1],2.9 µM
"O=[N+]([O-])[O-].[Na+] [nitrate, sodium nitrate]",circulating half life of nitrate,[2],300 to 480 min
same,clearance of nitrate from blood to urine,[3],Approximately 20 ml/min
same,"poisoning, total oral daily dose",[4]; oral,> 4 g
same,dose generally fatal,[4],13 to 15 g
same,dose that may be fatal,[4],8 g
same,"poisoning, single dose",[4],more than 1 g
same,ingested nitrate actively taken up by the salivary glands,[5]; excreted in the saliva,≤ 25%
same,salivary nitrate reduced to nitrite by bacteria in the mouth,[5]; in vivo,Approximately 20%
"O=NO [nitrite, sodium nitrite]",carcinogenic activity,[6],no evidence of carcinogenic activity
same,half-life of nitrite in the circulation,[7]; circulation,1.83 min
same,half life of nitrite in whole blood,[7],1.83 min
same,half life of nitrite in whole blood,[7]; listed as NO2^−,about 110 seconds
same,plasma and heart nitroso levels,[8]; [16],replenished and increased
same,plasma and heart steady-state nitrite and nitrate concentrations,[8]; [16],restored
same,nitrosyl-heme products,[8]; nitrite supplementation in the drinking water,replenished
same,plasma and cardiac nitroso in eNOS-/- mice,[9],above C57 control levels
same,plasma nitrite in eNOS-/- mice,[9],restores
same,fatal dose,[10]; in humans,22 to 23 mg/kg
same,fatal dose of nitrite,[10]; in vivo,22-23 mg/kg body weight
same,survival 24 hours post-myocardial infarction,[11]; low NOx diet with nitrite-supplemented drinking water,76.9%
same,reversal of the increased myocardial infarct size,"[11]; low NOx diet, 50 mg/L sodium nitrite ad libitum in the drinking water",57%
same,protection from myocardial ischemia/reperfusion injury,[12],protected
same,carcinogenic activity,[13],no evidence of carcinogenic activity
same,less lesion formation on the abdominal aorta than control group,[14],20%
O=O [oxygen],inhibition of nitrite reduction,[15],80%
